Laboratory results: patent US20230263808A1 (UNIVERSITY OF FLORIDA RESEARCH FOUNDATION, INCORPORATED, priority 2020, published 2023)
“Also recorded” adds a separate entry of the source. Read-outs that look alike come from different tables or passages of the source.

Legend:
[1] = tested on: primary human osteoblasts; experiment: Osteoblast mineralization (Alizarin Red S) from mesenchymal stem cells; type: cell-based
Protocol: A) Each dot represents the effects of a compound in the indicated assays at 10 uM. N=4-6 from two different experiments. […] C) SR11466 is efficacious at inhibiting IL-6 secretion from A549 cells. C-E). […] D) Mitochondrial activity was measured in myoblasts using high content imaging with mitotracker dye after 24 treatment. New amino acid incorporation was measured with LICOR in cell western for puromycin (SunSet assay). E) top, MMTV-luciferase reporter data. N=3, mean+SEM. Bottom, Mineralization of primary human OBs was assayed after two weeks of differentiation from MSC and two weeks of mineralization. N=4, mean+SEM, 2-way ANOVA.
As a further test for dissociation, the compounds were profiled in primary human osteoblasts for effects on osteogenesis during 4 weeks of differentiation from mesenchymal stem cells. Specifically, osteoblast mineralization was examined as follows. Human mesenchymal stem cells (MSCs) at passage 2 were maintained in growth media consisted of alpha-MEM (Life Technologies, 32561-037) supplemented with 17% FBS (Sigma-Aldrich, 12303C), 2 mM L-glutarnine (Life Technologies, 25030-081), and 100 units/mL penicillin/streptomycin (Life Technologies, 15140-122). Effect of glucocorticoid receptor modulators on osteogenic differentiation of MSCs was quantified using Alizarin Red S (Sigma-Aldrich, A5533) staining. Briefly, human MSCs were seeded in the middle 8 wells of 48-well plates at plating density of 10,000 cells per well. PBS (Life Technologies, 10010-031) was added to surrounding wells to reduce evaporation of media in the middle wells during prolonged incubation. 24 h later, growth media was replaced by osteogenic induction media (OIM) consisted of low-glucose DMEM (Life Technologies, 10567-014) supplemented with 10% FBS (Sigma-Aldrich. 12303C), 50 μg/ml L-ascorbic-2-phosphate (Sigma-Aldrich, A8960), 10 mM β-glyceroiphosphate (Sigma-Aldrich, G9891), and glucocorticoid modulators. OIM containing test compounds was replaced every week. At the end of 2 weeks, monolayers were washed with PBS (Life Technologies, 10010-031), incubated in Richard-Allan Scientific™ Neutral Buffered Formalin (10%) (Thermo Scientific, 5725) for 2 h at room temperature, washed with deionized water and stained with Alizarin Red S for 30 min at room temperature. Monolayers were then rinsed 3×with deionized water until clear, stain was then extracted with 10% (w/v) cetylpyridinium chloride (Sigma-Aldrich, C0732) in 10 mM sodium phosphate (Sigma, S5011 and S5136), pH 7.0 for 15 min at room temperature and the amount of extracted dye quantified spectroscopically at 562 nm. Spectroscopic analysis performed using a synergy™ NEO HTS Multi-Mode Microplate Reader (BioTek Instruments, Inc.).

[2] = target: T1, glucocorticoid receptor (GR) (Homo sapiens, UniProt P04150); experiment: GR-driven (MMTV) luciferase reporter assay, agonist and antagonist mode; type: cell-based
T1 construct: expressed in transfected cells; host or cells: 293T
T1 sequence (P04150 1-777): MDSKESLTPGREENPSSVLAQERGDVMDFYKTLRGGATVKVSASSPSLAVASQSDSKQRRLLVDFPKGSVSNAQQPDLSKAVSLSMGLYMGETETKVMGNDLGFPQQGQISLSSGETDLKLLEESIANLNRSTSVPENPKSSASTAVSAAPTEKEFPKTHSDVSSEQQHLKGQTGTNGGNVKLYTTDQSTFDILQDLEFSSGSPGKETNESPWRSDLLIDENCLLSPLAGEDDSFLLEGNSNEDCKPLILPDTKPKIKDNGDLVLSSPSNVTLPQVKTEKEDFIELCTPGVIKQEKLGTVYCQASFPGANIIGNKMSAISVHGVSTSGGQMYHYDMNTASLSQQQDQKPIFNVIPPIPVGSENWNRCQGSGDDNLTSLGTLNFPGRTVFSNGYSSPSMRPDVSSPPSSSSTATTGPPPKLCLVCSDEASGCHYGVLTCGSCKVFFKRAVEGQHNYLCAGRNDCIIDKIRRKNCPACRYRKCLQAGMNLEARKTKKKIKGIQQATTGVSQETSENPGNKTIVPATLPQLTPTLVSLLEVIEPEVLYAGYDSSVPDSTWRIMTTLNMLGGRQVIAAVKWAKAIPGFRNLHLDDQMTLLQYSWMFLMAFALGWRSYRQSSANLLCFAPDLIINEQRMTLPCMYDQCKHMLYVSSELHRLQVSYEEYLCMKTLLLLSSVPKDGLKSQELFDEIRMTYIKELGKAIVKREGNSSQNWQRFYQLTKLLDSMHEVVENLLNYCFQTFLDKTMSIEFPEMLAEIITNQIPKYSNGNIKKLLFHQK
Protocol: For native gene expression, C2C12 myotubes were treated compounds for 24 h. For MMTV-Luc assay, steroid-deprived 293T cells were co-transfected with a GR expression plasmid and an MMTV-driven luciferase reporter plasmid. The next day, cells were treated with compounds for 24 hrs. Each point represents the average of triplicate biological measurements for a separate compound. B) AR Luc assay development. Steroid-deprived 293T cells were transfected with AR expression plasmid and an ARR3-tk-driven luciferase reporter. The next day cells were treated with increasing doses of the indicated compounds. Data shown are mean+SD of triplicate measurements. C) AR-Luc assay identified 5 GCs with some AR activity.
A) The effects of all tested compounds on IL-1β-induced IL-6 production (x-axes) versus GR interaction with the indicated peptides. B-C) The effects of all tested compounds on the indicated GC-regulated phenotypes (x-axes) versus GR interaction with the CHD9_1023 and CENPR_1 peptides (y-axes). D-F) COC plots. Each point represents the Pearson correlation coefficient, r, between a distinct gene expression or GR-peptide interaction assay with assays indicated on the x and y axes. G) The effects of all tested compounds on IL-1β-induced IL-6 production (y-axes) versus insulin-induced protein synthesis. […] IL-β-induced IL-6 production by A549 cells treated with the indicated compounds was compared by AlphaLISA. […] Mice in panel K were subjected to a lactate-tolerance test (LTT).
For inclusion in the statistical analyses, assays were required to show high reproducibility, with a Pearson correlation >0.8 between different experiments (FIG. 2, H; FIG. 9, A). […] We also analyzed the effects of the compounds on expression of Fkbp5, Pdk4, and Klf15 mRNAs in C2C12 myotubes, and MMTV-luciferase and androgen receptor (AR) driven-luciferase activity in 293T cells. Fkbp5 and Pdk4 are among the most highly expressed GR target genes, while Klf15 is a known GR target gene that inhibits protein synthesis and stimulates expression of genes that facilitate protein degradation (Shimizu et al., Cell Metabol. 13, 170-182, 2011). We also analyzed the effects of compounds on nuclear translocation of GR using a quantitative HTS approach (Htun et al., Proc. Natl. Acad. Sci. USA 93, 4845-4850, 1996). To visualize the variance of the compounds, we expressed the data as Z score for each assay, in units of standard deviation (FIG. 9, A). […] We used an AR-luciferase assay to test for androgenic activity (FIG. 9, B). From this we identified a handful compounds with AR activity >5% (FIG. 9, C).

SMILES | effect on mineralization (bone) [1] | modulator profile (agonist/antagonist) [2] | EC50 ([2]; read-out: EC50 in a luciferase reporter assay) | IC50 ([2]; read-out: IC50 for GR-driven luciferase activity) | IC50 ([2]; read-out: IC50 for displacing 10 nM Dex, antagonist mode, 10 nM Dex) | IC50 ([2]; read-out: IC50 in the reporter assay) | EC50 ([2]; assay not given, read-out: EC50)
CC#CC1(O)CCC2C3CCc4cc(C(=O)Nc5cccnc5C)ccc4C3C(OCc3ccc(Cl)cc3)CC21C (centres unmarked) [SR16025] | more than quadrupled; also recorded: quadruple |  |  |  |  |  | 
C=CCOC1CC2(C)C(CCC2(O)C#CC)C2CCc3cc(C(=O)Nc4cccnc4C)ccc3C12 (centres unmarked) [SR11466] | modest improvements on mineralization | partial agonist | 0.1 nM | 0.24 nM |  |  | 
CC#CC1(O)CCC2C3CCc4cc(C(=O)Nc5cccnc5C)ccc4C3C(OCc3ccccc3Cl)CC21C (centres unmarked) [SR16024] | bone sparing | full antagonist |  |  | 1 nM | 1.5 nM | 
CC#CC1(O)CCC2C3CCc4cc(C(=O)Nc5cnccc5C)ccc4C3C(O)CC21C (centres unmarked) [SR15421] | completely bone sparing |  |  |  |  |  | 240 nM
